Data on 22 molecules can be found in patent US20220162191A1, “SMALL MOLECULE MODULATORS OF IL-17” (LEO PHARMA A/S, priority 2019, published 2022).

The target of the test is T1, human IL-17AA (Homo sapiens, UniProt Q16552).
T1 construct: host or cells: HEK (human embryonic kidney) cells
T1 sequence (Q16552 24-155) 1: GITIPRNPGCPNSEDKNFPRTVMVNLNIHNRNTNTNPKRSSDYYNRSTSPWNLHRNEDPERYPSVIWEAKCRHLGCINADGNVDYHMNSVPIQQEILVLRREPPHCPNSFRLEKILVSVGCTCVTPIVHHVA
T1 sequence (Q16552 24-155) 2: T1 sequence (Q16552 24-155) 1
The experiment in a line: IL-8 release assay in human epithelial keratinocytes adult (HEKa). Particulars: 3 ng/ml human IL-17AA + 10 ng/ml human TNFalpha, 68-72 h, IL-8 by HTRF, read-out: Rel EC50 L-8 release assay. Format: cell-based. The gist of the method: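 Adult human keratinocytes in Epilife with HKGS minus hydrocortisone, treated with compound then stimulated with final 3 ng/ml HEK-derived human IL-17AA plus 10 ng/ml TNF-alpha for 68–72 h at 37 °C; TNF-alpha alone defines 100% inhibition. Secreted IL-8 by HTRF; relative IC50 and Emax from four-parameter fits.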
A general note: In TR-FRET formats the signal depends on donor and acceptor labels being close together.

The EC50 is the concentration giving half of the maximal effect.

Take `Cn1cnnc1-c1ccc(NC(=O)C(Cc2cc(-c3ccc(O)c(CN4CCOCC4)c3)ccc2Cl)NC(=O)c2ccnn2C)cc1` (stereo not shown) [Example 130, N-[1-[[2-chloro-5-[4-hydroxy-3-(morpholinomethyl)phenyl]phenyl]methyl]-2-[4-(4-methyl-1,2,4-triazol-3-yl)anilino]-2-oxo-ethyl]-2-methyl-pyrazole-3-carboxamide]: the EC50 lay within 100 to 1000 nM. In the case of `CC(C)n1cc(-c2ccc(Cl)c(CC(NC(=O)c3ccnn3C)C(=O)Nc3ccc(-c4nncn4C)cc3)c2)cc(C(F)(F)F)c1=O` (stereo not shown) [Example 163, N-[1-[[2-chloro-5-[1-isopropyl-6-oxo-5-(trifluoromethyl)-3-pyridyl]phenyl]methyl]-2-[4-(4-methyl-1,2,4-triazol-3-yl)anilino]-2-oxo-ethyl]-2-methyl-pyrazole-3-carboxamide], the concentration for a half-maximal effect (EC50) is above 1000 nM. Under `Cc1nocc1C(=O)N[C@@H](Cc1cc(-c2ccnc(C(O)C(C)(C)C)c2)ccc1Cl)C(=O)Nc1ccc(-c2nncn2C)cc1` (stereo partly drawn) [Example 81, N-[(1S)-1-[[2-chloro-5-[2-(1-hydroxy-2,2-dimethyl-propyl)-4-pyridyl]phenyl]methyl]-2-[4-(4-methyl-1,2,4-triazol-3-yl)anilino]-2-oxo-ethyl]-3-methyl-isoxazole-4-carboxamide] stands 100 to 1000 nM. Consider `Cc1cnn(C)c1-c1ccc(NC(=O)[C@H](Cc2cc(-c3ccc(=O)n(C(C)C)c3)ccc2Cl)NC(=O)CCC(C)C)cc1` [Example 327, N-[(1S)-1-[[2-chloro-5-(1-isopropyl-6-oxo-3-pyridyl)phenyl]methyl]-2-[4-(2,4-dimethylpyrazol-3-yl)anilino]-2-oxo-ethyl]-4-methyl-pentanamide], for which the EC50 fell in the range of 100 to 1000 nM. Under `Cc1n[nH]c(C)c1-c1ccc(NC(=O)[C@H](Cc2cc(-c3cnn(C(C)(C)C)c3)ccc2Cl)NC(=O)c2ccnn2C)cc1` [Example 200, N-[(1S)-1-[[5-(1-tert-butylpyrazol-4-yl)-2-chloro-phenyl]methyl]-2-[4-(3,5-dimethyl-1H-pyrazol-4-yl)anilino]-2-oxo-ethyl]-2-methyl-pyrazole-3-carboxamide] stands below 100 nM; under `Cc1n[nH]c(C)c1-c1ccc(NC(=O)[C@H](Cc2cc(-c3ccnc(N4CCC5(COC5)C4)n3)ccc2Cl)NC(=O)C2(F)CC2)cc1` [Example 316, N-[(1S)-1-[[2-chloro-5-[2-(2-oxa-7-azaspiro[3.4]octan-7-yl)pyrimidin-4-yl]phenyl]methyl]-2-[4-(3,5-dimethyl-1H-pyrazol-4-yl)anilino]-2-oxo-ethyl]-1-fluoro-cyclopropanecarboxamide], below 100 nM; under `Cc1n[nH]c(C)c1-c1ccc(NC(=O)[C@@H](NC(=O)C2(F)CC2)[C@@H]2CCCc3ccc(-c4ccnc(N5C[C@H]6C[C@@H]5CO6)c4)cc32)cc1` [Example 387, N-[(1S)-2-[4-(3,5-dimethyl-1H-pyrazol-4-yl)anilino]-1-[(1R)-7-[2-[(1R,4R)-2-oxa-5-azabicyclo[2.2.1]heptan-5-yl]-4-pyridyl]tetralin-1-yl]-2-oxo-ethyl]-1-fluoro-cyclopropanecarboxamide], below 100 nM. With `Cn1cnnc1-c1ccc(NC(=O)C(Cc2cc(-c3ccc(O)c(CN4CCC4)c3)ccc2Cl)NC(=O)c2ccnn2C)cc1` (stereo not shown) [Example 168, N-[1-[[5-[3-(azetidin-1-ylmethyl)-4-hydroxy-phenyl]-2-chloro-phenyl]methyl]-2-[4-(4-methyl-1,2,4-triazol-3-yl)anilino]-2-oxo-ethyl]-2-methyl-pyrazole-3-carboxamide], the half-maximal effective concentration (EC50) was in the range of 100 to 1000 nM.

On to `CC(C)n1cc(-c2cccc(C(c3ccccc3)C(NC(=O)OC3CC3)C(=O)Nc3ccc(-c4cncn4C)cc3)c2)ccc1=O` (single isomer, unassigned) [Example 231, Cyclopropyl N-[1-[[3-(1-isopropyl-6-oxo-3-pyridyl)phenyl]-phenyl-methyl]-2-[4-(3-methylimidazol-4-yl)anilino]-2-oxo-ethyl]carbamate], for which the EC50 fell in the range of 100 to 1000 nM. As for `Cc1n[nH]c(C)c1-c1ccc(NC(=O)[C@H](Cc2cc(-c3ccnc(N4CCOCC4)c3)ccc2Cl)NC(=O)C2(F)CC2)cc1` [Example 225, N-[(1S)-1-[[2-chloro-5-(2-morpholino-4-pyridyl)phenyl]methyl]-2-[4-(3,5-dimethyl-1H-pyrazol-4-yl)anilino]-2-oxo-ethyl]-1-fluoro-cyclopropanecarboxamide], the half-maximal effective concentration (EC50) was below 100 nM.

As to `Cc1n[nH]c(C)c1-c1ccc(NC(=O)[C@@H](NC(=O)c2ccnn2C)[C@@H]2CCc3ccc(-c4ccc(CN5CCOCC5)cc4)cc32)cc1` [Example 2, N-[(1S)-2-[4-(3,5-dimethyl-1H-pyrazol-4-yl)anilino]-1-[(1R)-6-[4-(morpholinomethyl)phenyl]indan-1-yl]-2-oxo-ethyl]-2-methyl-pyrazole-3-carboxamide], the concentration for a half-maximal effect (EC50) is below 100 nM.

As to `Cc1n[nH]c(C)c1-c1ccc(NC(=O)[C@@H](NC(=O)C2(F)CC2)[C@@H]2CCCc3ccc(-c4ccnc(N5CCNCC5)c4)cc32)cc1` [Example 39, N-[(1S)-2-[4-(3,5-dimethyl-1H-pyrazol-4-yl)anilino]-2-oxo-1-[(1R)-7-(2-piperazin-1-yl-4-pyridyl)tetralin-1-yl]ethyl]-1-fluoro-cyclopropanecarboxamide], the EC50 is below 100 nM. The same measure for `Cc1n[nH]c(C)c1-c1ccc(NC(=O)C(Cc2cc(-c3ccc(=O)n(C(C)C)c3)ccc2Cl)NC(=O)c2ccnn2C)cc1` (stereo not shown) [Example 94, N-[1-[[2-chloro-5-(1-isopropyl-6-oxo-3-pyridyl)phenyl]methyl]-2-[4-(3,5-dimethyl-1H-pyrazol-4-yl)anilino]-2-oxo-ethyl]-2-methyl-pyrazole-3-carboxamide]: below 100 nM. Under `CCCC(=O)N[C@@H](Cc1cc(-c2ccc(=O)n(C(C)C)c2)ccc1Cl)C(=O)Nc1ccc(-c2c(C)cnn2C)cc1` [Example 330, N-[(1S)-1-[[2-chloro-5-(1-isopropyl-6-oxo-3-pyridyl)phenyl]methyl]-2-[4-(2,4-dimethylpyrazol-3-yl)anilino]-2-oxo-ethyl]butanamide] stands 100 to 1000 nM; under `Cn1cncc1-c1ccc(NC(=O)C(Cc2cc(-c3ccnc(N4CC[C@@H](CO)C4)c3)ccc2Cl)NC(=O)c2ccnn2C)cc1` (stereo partly drawn) [Example 186, N-[1-[[2-chloro-5-[2-[(3R)-3-(hydroxymethyl)pyrrolidin-1-yl]-4-pyridyl]phenyl]methyl]-2-[4-(3-methylimidazol-4-yl)anilino]-2-oxo-ethyl]-2-methyl-pyrazole-3-carboxamide], 100 to 1000 nM. For `Cc1nocc1C(=O)NC(Cc1cc(-c2ccnc(C(=O)N(C)C3CC3)c2)ccc1Cl)C(=O)Nc1ccc(-c2nncn2C)cc1` (stereo not shown) [Example 306, N-[1-[[2-chloro-5-[2-[cyclopropyl(methyl)carbamoyl]-4-pyridyl]phenyl]methyl]-2-[4-(4-methyl-1,2,4-triazol-3-yl)anilino]-2-oxo-ethyl]-3-methyl-isoxazole-4-carboxamide], the EC50 was above 1000 nM. The same measure for `Cc1ncn(C)c1-c1ccc(NC(=O)[C@H](Cc2cc(-c3ccnc(N4CCOCC4)c3)ccc2Cl)NC(=O)C2(F)CC2)cc1` [Example 224, N-[(1S)-1-[[2-chloro-5-(2-morpholino-4-pyridyl)phenyl]methyl]-2-[4-(3,5-dimethylimidazol-4-yl)anilino]-2-oxo-ethyl]-1-fluoro-cyclopropanecarboxamide]: below 100 nM. Under `Cn1cncc1-c1ccc(NC(=O)C(Cc2cc(-c3ccnc(OC4CCC4)c3)ccc2Cl)NC(=O)c2ccnn2C)cc1` (stereo not shown) [Example 158, N-[1-[[2-chloro-5-[2-(cyclobutoxy)-4-pyridyl]phenyl]methyl]-2-[4-(3-methylimidazol-4-yl)anilino]-2-oxo-ethyl]-2-methyl-pyrazole-3-carboxamide] stands 100 to 1000 nM; under `CC(C)n1cc(-c2ccc(Cl)c(C[C@H](NC(=O)C3CC(F)(F)C3)C(=O)Nc3ccc(-c4nncn4C)cc3)c2)ccc1=O` [Example 291, N-[(1S)-1-[[2-chloro-5-(1-isopropyl-6-oxo-3-pyridyl)phenyl]methyl]-2-[4-(4-methyl-1,2,4-triazol-3-yl)anilino]-2-oxo-ethyl]-3,3-difluoro-cyclobutanecarboxamide], above 1000 nM; under `Cc1cnn(C)c1-c1ccc(NC(=O)[C@@H](NC(=O)C2(F)CC2)[C@@H]2CCc3ccc(-c4ccnc(N5CC[C@H](O)C5)c4)cc32)cc1` [Example 359, N-[(1S)-2-[4-(2,4-dimethylpyrazol-3-yl)anilino]-1-[(1R)-6-[2-[(3S)-3-hydroxypyrrolidin-1-yl]-4-pyridyl]indan-1-yl]-2-oxo-ethyl]-1-fluoro-cyclopropanecarboxamide], 100 to 1000 nM.

As to `Cc1cnn(C)c1-c1ccc(NC(=O)[C@@H](NC(=O)C2(F)CC2)[C@H](C)c2cccc(-c3cncc(N4C[C@@H]5C[C@H]4CO5)n3)c2)cc1` [Example 343, N-[(1S,2R)-1-[[4-(2,4-dimethylpyrazol-3-yl)phenyl]carbamoyl]-2-[3-[6-[(1S,4S)-2-oxa-5-azabicyclo[2.2.1]heptan-5-yl]pyrazin-2-yl]phenyl]propyl]-1-fluoro-cyclopropanecarboxamide], the EC50 fell in the range of 100 to 1000 nM. The same measure for `Cc1n[nH]c(C)c1-c1ccc(NC(=O)[C@@H](NC(=O)c2ccnn2C)[C@@H]2CCc3ccc(-c4ccc(CN5CCCCC5)cc4)cc32)cc1` [Example 20, N-[(1S)-2-[4-(3,5-dimethyl-1H-pyrazol-4-yl)anilino]-2-oxo-1-[(1R)-6-[4-(1-piperidylmethyl)phenyl]indan-1-yl]ethyl]-2-methyl-pyrazole-3-carboxamide]: 100 to 1000 nM.
